Columns and labels:
influenza virus = assay: microbe, parasite or virus in culture; format: cell-based, influenza virus (MDBK or MDCK cells); conditions: unidentified influenza virus, 72 h, read-out: CPE EC50, effective concentration to achieve 50% CPE inhibition, 3 days incubation, WST-8
[1] = target: cap-dependent endonuclease (RNP fraction containing PB1•PB2•PA complex) (Influenza A virus, UniProt P15659); assay: biochemical; conditions: RNP from A/WSN/33 virus, capped Cy3/BHQ2 30mer RNA substrate, 60 minutes at room temperature; read-out: CEN IC50

| SMILES | EC50 (influenza virus) | IC50 [1] |
| --- | --- | --- |
| COCCN1CN(C2c3ccccc3COc3c(F)cccc32)n2ccc(=O)c(O)c2C1=O (stereo not shown) [Example 400] | 0.079 µM | 0.067 µM |
| COCCN1CN(C2c3cc(F)ccc3COc3ccccc32)n2ccc(=O)c(O)c2C1=O (stereo not shown) [Example 404] | 0.063 µM | 0.084 µM |
| COCCN1CN(C2c3ccccc3OCc3c(F)cccc32)n2ccc(=O)c(O)c2C1=O (stereo not shown) [Example 405] | 0.051 µM | 0.074 µM |
| CC(C)N1CN(C2c3ccccc3OCc3c(F)cccc32)n2ccc(=O)c(O)c2C1=O (stereo not shown) [Example 407] | 0.017 µM | 0.035 µM |
| CC(C)N1CN(C2c3cc(Cl)ccc3COc3ccccc32)n2ccc(=O)c(O)c2C1=O (stereo not shown) [Example 408] | 0.061 µM | 0.135 µM |
| C[C@@H](N1CN(C2c3ccccc3COc3c(Cl)cccc32)n2ccc(=O)c(O)c2C1=O)C(F)(F)F (stereo partly shown) [Example 411] | 0.014 µM | 0.046 µM |
| CC(C)c1cccc2c1OCc1ccccc1C2N1CN(C(C)C)C(=O)c2c(O)c(=O)ccn21 (stereo not shown) [Example 412] | 0.203 µM | 0.292 µM |
| C[C@H](N1CN([C@@H]2c3ccccc3SCc3c(Cl)cccc32)n2ccc(=O)c(O)c2C1=O)C(F)(F)F [Example 419] | 0.019 µM | 0.124 µM |
| C[C@H](N1CN([C@H]2c3ccc(Cl)cc3CSc3ccccc32)n2ccc(=O)c(O)c2C1=O)C(F)(F)F [Example 420] | 0.021 µM | 0.058 µM |
| C[C@H](N1CN([C@H]2c3ccccc3CSc3c(Cl)cccc32)n2ccc(=O)c(O)c2C1=O)C(F)(F)F [Example 423] | 0.019 µM | 0.28 µM |
| C[C@@H](N1CN([C@H]2c3ccc(Br)cc3CSc3ccccc32)n2ccc(=O)c(O)c2C1=O)C(F)(F)F [Example 433] | 0.017 µM | 0.014 µM |
| C[C@@H](N1CN([C@H]2c3ccccc3SCc3c(F)cccc32)n2ccc(=O)c(O)c2C1=O)C(F)(F)F [Example 445] | 0.004 µM | 0.013 µM |
| C[C@@H](N1CN([C@H]2c3ccc(Cl)cc3CSc3ccccc32)n2ccc(=O)c(O)c2C1=O)C(F)(F)F [Example 446] | 0.011 µM | 0.007 µM |
| C[C@H](N1CN([C@H]2c3cc(F)ccc3CSc3ccccc32)n2ccc(=O)c(O)c2C1=O)C(F)(F)F [Example 447] | 0.018 µM | 0.096 µM |
| C[C@@H](N1CN([C@H]2c3ccccc3CSc3cc(Cl)ccc32)n2ccc(=O)c(O)c2C1=O)C(F)(F)F [Example 449] | 0.021 µM | 0.062 µM |
| C[C@H](N1CN([C@@H]2c3ccccc3SCc3c(F)cccc32)n2ccc(=O)c(O)c2C1=O)C(F)(F)F [Example 452] | 0.016 µM | 0.177 µM |
| C[C@H](N1CN([C@@H]2c3ccccc3SCc3cccc(F)c32)n2ccc(=O)c(O)c2C1=O)C(F)(F)F [Example 457] | 0.014 µM | 0.242 µM |
| Cc1cccc2c1CSc1ccccc1[C@H]2N1CN([C@H](C)C(F)(F)F)C(=O)c2c(O)c(=O)ccn21 [Example 464] | 0.014 µM | 0.024 µM |
| C[C@@H](N1CN([C@@H]2c3ccccc3SCc3c(C#N)cccc32)n2ccc(=O)c(O)c2C1=O)C(F)(F)F [Example 476] | 0.014 µM | 0.031 µM |
| CN(C)CCN1CN(C2c3ccccc3CCc3ccccc32)n2ccc(=O)c(O)c2C1=O [Example 478] | 0.129 µM | 0.088 µM |
| CC(CN1CCOCC1)N1CN(C2c3ccccc3CCc3ccccc32)n2ccc(=O)c(O)c2C1=O (stereo not shown) [Example 482] | 0.031 µM | 0.103 µM |

| SMILES | EC50 (influenza virus) | IC50 [1] |
| --- | --- | --- |
| CC(CN1CCN(C)CC1)N1CN(C2c3ccccc3CSc3ccccc32)n2ccc(=O)c(O)c2C1=O (stereo not shown) [Example 485] | 0.424 µM | 0.221 µM |
| CC(CN1CCCCC1)N1CN(C2c3ccccc3CCc3ccccc32)n2ccc(=O)c(O)c2C1=O (stereo not shown) [Example 486] | 0.072 µM | 0.14 µM |
| CC(CN1CCCCC1)N1CN(C2c3ccccc3CSc3ccccc32)n2ccc(=O)c(O)c2C1=O (stereo not shown) [Example 487] | 0.026 µM | 0.091 µM |
| CC(CN1CCSCC1)N1CN(C2c3ccccc3CCc3ccccc32)n2ccc(=O)c(O)c2C1=O (stereo not shown) [Example 488] | 0.027 µM | 0.151 µM |
| CC(CN1CCSCC1)N1CN(C2c3ccccc3CSc3ccccc32)n2ccc(=O)c(O)c2C1=O (stereo not shown) [Example 489] | 0.014 µM | 0.133 µM |
| CCN1C(=O)c2c(O)c(=O)ccn2C(C(c2ccccc2)C2CCCCC2)N1CC (stereo not shown) [Example 493] | 0.101 µM | 0.112 µM |
| COCCN1C(=O)c2c(O)c(=O)ccn2C(C(c2ccccc2)c2ccccc2)N1C (stereo not shown) [Example 495] | 0.31 µM | 0.277 µM |
| CN1C(=O)c2c(O)c(=O)ccn2C(C(c2ccccc2)c2ccccc2)N1C (stereo not shown) [Example 496] | 0.177 µM | 0.17 µM |
| CN1C(C(c2ccccc2)c2ccccc2)n2ccc(=O)c(O)c2C(=O)N1CCOc1ccc(F)cc1 (stereo not shown) [Example 497] | 0.511 µM | 0.215 µM |
| CCN1C(=O)c2c(O)c(=O)ccn2C(C(c2ccccc2)c2ccccc2)N1CC (stereo not shown) [Example 498] | 0.351 µM | 0.161 µM |
| CC(C)N1CN(C2c3ccccc3CCc3ccccc32)n2cc(CF)c(=O)c(O)c2C1=O [Example 508] | 0.056 µM | 0.036 µM |
| CC(C)N1CN(C2c3ccccc3CSc3ccccc32)n2cc(CF)c(=O)c(O)c2C1=O (stereo not shown) [Example 509] | 0.014 µM | 0.015 µM |
| COCCC1N(C(C)C)C(=O)c2c(O)c(=O)ccn2N1C1c2ccccc2CCc2ccccc21 (stereo not shown) [Example 511] | 0.015 µM | 0.175 µM |
| COCC1N(C(C)C)C(=O)c2c(O)c(=O)ccn2N1C1c2ccccc2CCc2ccccc21 (stereo not shown) [Example 515] | 0.019 µM | 0.197 µM |
| CSCCC1N(C(C)C)C(=O)c2c(O)c(=O)ccn2N1C1c2ccccc2CCc2ccccc21 (stereo not shown) [Example 516] | 0.017 µM | 0.039 µM |
| COC(OC)C1N(C(C)C)C(=O)c2c(O)c(=O)ccn2N1C1c2ccccc2CCc2ccccc21 (stereo not shown) [Example 520] | 0.017 µM | 0.212 µM |
| CC(C)N1C(=O)c2c(O)c(=O)ccn2N(C2c3ccccc3CCc3ccccc32)C1CCC(F)(F)F (stereo not shown) [Example 521] | 0.015 µM | 0.191 µM |
| COCCCC1N(C(C)C)C(=O)c2c(O)c(=O)ccn2N1C1c2ccc(Cl)cc2CCc2cc(Cl)ccc21 (stereo not shown) [Example 524] | 0.026 µM | 0.057 µM |
| CC(C)N1C(=O)c2c(O)c(=O)ccn2N(C2c3ccccc3CCc3ccccc32)C1c1ccc(Cl)cc1 (stereo not shown) [Example 527] | 0.088 µM | 0.127 µM |
| CC(C)N1C(=O)c2c(O)c(=O)ccn2N(C2c3ccccc3CCc3ccccc32)C1CN (stereo not shown) [Example 532] | 0.075 µM | 0.098 µM |
| CC(C)N1C(=O)c2c(O)c(=O)ccn2N(C2c3ccccc3CCc3ccccc32)C1CN(C)C (stereo not shown) [Example 536] | 0.027 µM | 0.071 µM |

| SMILES | EC50 (influenza virus) | IC50 [1] |
| --- | --- | --- |
| COC(=O)NCC1N(C(C)C)C(=O)c2c(O)c(=O)ccn2N1C1c2ccccc2CCc2ccccc21 (stereo not shown) [Example 544] | 0.051 µM | 0.168 µM |
| CSCC(=O)NCC1N(C(C)C)C(=O)c2c(O)c(=O)ccn2N1C1c2ccccc2CCc2ccccc21 (stereo not shown) [Example 546] | 0.124 µM | 0.202 µM |
| CC(C)N1C(=O)c2c(O)c(=O)ccn2N(C2c3ccccc3CCc3ccccc32)C1CO (stereo not shown) [Example 547] | 0.027 µM | 0.032 µM |
| CC(C)N1C(=O)c2c(O)c(=O)ccn2N(C2c3ccccc3CCc3ccccc32)C1CCO (stereo not shown) [Example 548] | 0.038 µM | 0.086 µM |
| NCC1N(CCO)C(=O)c2c(O)c(=O)ccn2N1C1c2ccccc2CCc2ccccc21 (stereo not shown) [Example 549] | 2.1 µM | 0.076 µM |
| COCCC1N(CCO)C(=O)c2c(O)c(=O)ccn2N1C1c2ccccc2CCc2ccccc21 (stereo not shown) [Example 552] | 0.085 µM | 0.23 µM |
| O=C1c2c(O)c(=O)ccn2N(C2c3ccccc3CCc3ccccc32)C(CO)N1CCO (stereo not shown) [Example 554] | 0.465 µM | 0.065 µM |
| COC[C@H](C)N1C(=O)c2c(O)c(=O)ccn2N(C2c3ccccc3CCc3ccccc32)[C@@H]1CO [Example 555] | 0.012 µM | 0.023 µM |
| COCCN1C[C@H](C(c2ccccc2)c2ccccc2)n2cc(C)c(=O)c(O)c2C1=O [Example 557] | 2.47 µM | 0.281 µM |
| CN1C[C@H](C2c3ccccc3CSc3ccccc32)n2cc(C(=O)O)c(=O)c(O)c2C1=O (stereo partly shown) [Example 560] | 0.173 µM | 0.027 µM |
| CC(C)N1C[C@H](C2c3ccccc3CSc3ccccc32)n2ccc(=O)c(O)c2C1=O (stereo partly shown) [Example 561] | 0.008 µM | 0.073 µM |
| CN1C[C@H](C2c3ccccc3CSc3ccccc32)n2ccc(=O)c(O)c2C1=O (stereo partly shown) [Example 562] | 0.062 µM | 0.022 µM |
| O=C1NCC(C2c3ccccc3CCc3ccccc32)n2ccc(=O)c(O)c21 (stereo not shown) [Example 563] | 0.464 µM | 0.049 µM |
| CN1CC(C2c3ccccc3CCc3ccccc32)n2ccc(=O)c(O)c2C1=O (stereo not shown) [Example 564] | 0.136 µM | 0.088 µM |
| CN(C)CCN1CC(C2c3ccccc3CCc3ccccc32)n2ccc(=O)c(O)c2C1=O (stereo not shown) [Example 565] | 0.726 µM | 0.154 µM |
| O=C1c2c(O)c(=O)ccn2C(C2c3ccccc3CCc3ccccc32)CN1c1ccccn1 (stereo not shown) [Example 569] | 1.01 µM | 0.138 µM |
| O=C1c2c(O)c(=O)ccn2C(C2c3ccccc3CCc3ccccc32)CN1c1cccnc1 (stereo not shown) [Example 570] | 2.05 µM | 0.081 µM |
| NN1CC(C2c3ccccc3CCc3ccccc32)n2ccc(=O)c(O)c2C1=O (stereo not shown) [Example 571] | 0.32 µM | 0.065 µM |
| N#CCN1CC(C2c3ccccc3CCc3ccccc32)n2ccc(=O)c(O)c2C1=O (stereo not shown) [Example 573] | 0.158 µM | 0.055 µM |
| N#CCN1C[C@H](C(c2ccccc2)c2ccccc2)n2ccc(=O)c(O)c2C1=O [Example 574] | 0.442 µM | 0.165 µM |

Reference: patent US9815835B2, “Substituted polycyclic carbamolypyridone derivative” (priority 2009, dated 2017)
